In PubChem BioAssay AID1963846 (Molecular Pharmacology Branch, DTP, NCI, 2024):

Tested on: 454973-116-R2-J3-PDC complex spheroid viability
Assay: Anticancer human tumor 454973-116-R2-J3-PDC patient-derived pancreatic carcinoma cell line growth inhibition [POLQ]
Conditions: for IC50: curve of first compound; for viability, T/C: stronger effect = lower value
Summary of the method: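 Growth inhibition in 3D: complex spheroids (tumor PDC, HUVEC, MSC) treated with POLQ inhibitor combinations; where Cmax unknown, highest tested concentration 10 microM, except SN-38 at 1 microM.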

[1] = second compound 0.0316 µM, first compound 0.0316 µM
[2] = second compound 0.0316 µM, first compound 0.1 µM
[3] = second compound 0.0316 µM, first compound 0.316 µM
[4] = second compound 0.0316 µM, first compound 1 µM
[5] = second compound 0.0316 µM, first compound 3.16 µM
[6] = second compound 0.0316 µM, first compound 10 µM
[7] = second compound 0.1 µM, first compound 0.0316 µM
[8] = second compound 0.1 µM, first compound 0.1 µM
[9] = second compound 0.1 µM, first compound 0.316 µM
[10] = second compound 0.1 µM, first compound 1 µM
[11] = second compound 0.1 µM, first compound 3.16 µM
[12] = second compound 0.1 µM, first compound 10 µM
[13] = second compound 0.316 µM, first compound 0.0316 µM
[14] = second compound 0.316 µM, first compound 0.1 µM
[15] = second compound 0.316 µM, first compound 0.316 µM
[16] = second compound 0.316 µM, first compound 1 µM
[17] = second compound 0.316 µM, first compound 3.16 µM
[18] = second compound 0.316 µM, first compound 10 µM
[19] = second compound 1 µM, first compound 0.0316 µM
[20] = second compound 1 µM, first compound 0.1 µM
[21] = second compound 1 µM, first compound 0.316 µM
[22] = second compound 1 µM, first compound 1 µM
[23] = second compound 1 µM, first compound 3.16 µM
[24] = second compound 1 µM, first compound 10 µM
[25] = second compound 3.16 µM, first compound 0.0316 µM
[26] = second compound 3.16 µM, first compound 0.1 µM
[27] = second compound 3.16 µM, first compound 0.316 µM
[28] = second compound 3.16 µM, first compound 1 µM
[29] = second compound 3.16 µM, first compound 3.16 µM
[30] = second compound 3.16 µM, first compound 10 µM
[31] = second compound 10 µM, first compound 0.0316 µM
[32] = second compound 10 µM, first compound 0.1 µM
[33] = second compound 10 µM, first compound 0.316 µM
[34] = second compound 10 µM, first compound 1 µM
[35] = second compound 10 µM, first compound 3.16 µM
[36] = second compound 10 µM, first compound 10 µM
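Further: spheroids exposed to drugs for seven days before measurement.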
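Wherever viability, T/C is given: percent viability relative to DMSO vehicle control wells taken as 100%.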

For O=C(Nc1ccc(O)c(NS(=O)(=O)c2ccc(F)cc2)c1)c1ccc(-c2ccccc2)cc1 + Cc1cccc(N(C)C(=O)C2C(O)CCN2c2nc(C)cc(C(F)(F)F)c2C#N)c1, the IC50 (second compound 0.0316 µM) was > 10 µM, the IC50 (second compound 0.1 µM) was > 10 µM and the IC50 (second compound 0.316 µM) was > 10 µM. For the same molecule, the IC50 (second compound 1 µM) was > 10 µM, the IC50 (second compound 3.16 µM) was > 10 µM and the IC50 (second compound 10 µM) was > 10 µM. It also gave a viability, T/C [1] of 98.1%, a viability, T/C [2] of 108% and a viability, T/C [3] of 87.1%. It also gave a viability, T/C [4] of 100%, a viability, T/C [5] of 114% and a viability, T/C [6] of 82.2%. It also gave a viability, T/C [7] of 96.8%, a viability, T/C [8] of 97.2% and a viability, T/C [9] of 101%. It also gave a viability, T/C [10] of 111%, a viability, T/C [11] of 102% and a viability, T/C [12] of 85.1%. The viability, T/C [13] was 105%, the viability, T/C [14] was 92.7% and the viability, T/C [15] was 102%. It also gave a viability, T/C [16] of 106%, a viability, T/C [17] of 110% and a viability, T/C [18] of 84.9%. For the same molecule, the viability, T/C [19] was 98.9%, the viability, T/C [20] was 98.1% and the viability, T/C [21] was 100%. For the same molecule, the viability, T/C [22] was 103%, the viability, T/C [23] was 108% and the viability, T/C [24] was 85%. For the same molecule, the viability, T/C [25] was 107%, the viability, T/C [26] was 98.2% and the viability, T/C [27] was 98.4%. For the same molecule, the viability, T/C [28] was 103%, the viability, T/C [29] was 112% and the viability, T/C [30] was 81.4%. It also gave a viability, T/C [31] of 102%, a viability, T/C [32] of 105% and a viability, T/C [33] of 104%. For the same molecule, the viability, T/C [34] was 105%, the viability, T/C [35] was 95.8% and the viability, T/C [36] was 74.3%.

CC1COCCN1c1cc(C2(O)CC3CCC(C2)O3)c2cnn(-c3ccn[nH]3)c2n1 (stereo unspecified) + COC1C(OC(N)=O)C(O)C(Oc2ccc3c(O)c(NC(=O)c4ccc(O)c(CC=C(C)C)c4)c(=O)oc3c2C)OC1(C)C showed an IC50 (second compound 0.0316 µM) of 0.205 µM, an IC50 (second compound 0.1 µM) of 0.233 µM and an IC50 (second compound 0.316 µM) of 0.225 µM. For the same molecule, the IC50 (second compound 1 µM) was 0.197 µM, the IC50 (second compound 3.16 µM) was 0.193 µM and the IC50 (second compound 10 µM) was 0.217 µM. For the same molecule, the viability, T/C [1] was 104%, the viability, T/C [2] was 74.1% and the viability, T/C [3] was 35.3%. For the same molecule, the viability, T/C [4] was 22.1%, the viability, T/C [5] was 25.1% and the viability, T/C [6] was 15.6%. It also gave a viability, T/C [7] of 93.2%, a viability, T/C [8] of 76.9% and a viability, T/C [9] of 39.6%. For the same molecule, the viability, T/C [10] was 24.4%, the viability, T/C [11] was 22.2% and the viability, T/C [12] was 15.8%. The viability, T/C [13] was 100%, the viability, T/C [14] was 75.6% and the viability, T/C [15] was 40.6%. The viability, T/C [16] was 18.9%, the viability, T/C [17] was 25.8% and the viability, T/C [18] was 18.4%. For the same molecule, the viability, T/C [19] was 102%, the viability, T/C [20] was 69.6% and the viability, T/C [21] was 37.8%. For the same molecule, the viability, T/C [22] was 18.7%, the viability, T/C [23] was 21.4% and the viability, T/C [24] was 20.1%. It also gave a viability, T/C [25] of 104%, a viability, T/C [26] of 73.5% and a viability, T/C [27] of 32.6%. The viability, T/C [28] was 19.3%, the viability, T/C [29] was 24.1% and the viability, T/C [30] was 17.6%. The viability, T/C [31] was 94.6%, the viability, T/C [32] was 68.4% and the viability, T/C [33] was 42.3%. It also gave a viability, T/C [34] of 21.5%, a viability, T/C [35] of 25.8% and a viability, T/C [36] of 15%.

With CC(C)n1c(=O)n(C)c2cnc3cc(F)c(-c4ccc(OCCCN5CCCCC5)nc4)cc3c21 + Cc1cccc(N(C)C(=O)C2C(O)CCN2c2nc(C)cc(C(F)(F)F)c2C#N)c1 the IC50 (second compound 0.0316 µM) was > 10 µM, the IC50 (second compound 0.1 µM) was > 10 µM and the IC50 (second compound 0.316 µM) was > 10 µM. For the same molecule, the IC50 (second compound 1 µM) was > 10 µM, the IC50 (second compound 3.16 µM) was > 10 µM and the IC50 (second compound 10 µM) was > 10 µM. The viability, T/C [1] was 97.4%, the viability, T/C [2] was 96.4% and the viability, T/C [3] was 103%. The viability, T/C [4] was 99.7%, the viability, T/C [5] was 105% and the viability, T/C [6] was 77.2%. It also gave a viability, T/C [7] of 97.3%, a viability, T/C [8] of 105% and a viability, T/C [9] of 101%. It also gave a viability, T/C [10] of 113%, a viability, T/C [11] of 107% and a viability, T/C [12] of 85%. For the same molecule, the viability, T/C [13] was 105%, the viability, T/C [14] was 110% and the viability, T/C [15] was 114%. The viability, T/C [16] was 104%, the viability, T/C [17] was 97.1% and the viability, T/C [18] was 86.8%. The viability, T/C [19] was 103%, the viability, T/C [20] was 105% and the viability, T/C [21] was 110%. It also gave a viability, T/C [22] of 116%, a viability, T/C [23] of 104% and a viability, T/C [24] of 87.3%. For the same molecule, the viability, T/C [25] was 109%, the viability, T/C [26] was 106% and the viability, T/C [27] was 108%. For the same molecule, the viability, T/C [28] was 99.3%, the viability, T/C [29] was 101% and the viability, T/C [30] was 86%. The viability, T/C [31] was 114%, the viability, T/C [32] was 110% and the viability, T/C [33] was 96.6%. For the same molecule, the viability, T/C [34] was 98.6%, the viability, T/C [35] was 97.3% and the viability, T/C [36] was 79%.
